The CheMixHub ionic liquid set

Experiment: xn = mol fraction of the nth substance listed

F[B-](F)(F)F.[Li+] + CCCC[n+]1ccn(C)c1.N#C[N-]C#N
electrical conductivity [S/m], 101 kPa
Conditions	x2 = 0.8903	x2 = 0.9069	x2 = 0.933	x2 = 0.9549	x2 = 0.9799
288.15 K	–	0.426	0.514	0.543	0.622
298.15 K	0.595	0.679	0.8	0.842	0.972
333.15 K	1.89	2.07	2.31	2.41	2.7

CCCCCCCCCO + CCCC[n+]1ccn(C)c1.O=S(=O)([N-]S(=O)(=O)C(F)(F)F)C(F)(F)F
Conditions	viscosity [mPa·s]
298 K, 100 kPa, x2 = 0.9008	41.28

CC[n+]1ccn(C)c1.O=C([O-])C(F)(F)F + OCC(O)CO
100 kPa
Conditions	electrical conductivity, 298.15 K [S/m]	electrical conductivity, 313.15 K [S/m]	viscosity, 293.15 K [mPa·s]	viscosity, 298.15 K [mPa·s]	viscosity, 303.15 K [mPa·s]	viscosity, 313.15 K [mPa·s]
x1 = 0.002	0.000383	0.0012	1382	893	592	280.8
x1 = 0.004	0.00069	0.00217	–	–	–	–
x1 = 0.013	0.00211	0.0066	1264	818	544	259.8
x2 = 0.202	0.81	1.37	47	38.2	31.3	22
x2 = 0.3	0.71	1.23	58	46.3	37.5	25.7
x2 = 0.399	0.57	1.02	65.5	51.5	41.1	27.5
x2 = 0.5	0.436	0.84	86	66.1	51.7	33.4
x2 = 0.6	0.305	0.63	115.9	86.6	66.1	40.8
x2 = 0.7	0.184	0.411	177.8	128.2	94.6	55
x2 = 0.8	0.08	0.199	316	218.7	155.2	84.1
x2 = 0.9	0.023	0.065	639	427	291.2	146.8
x2 = 0.956	0.0076	0.0231	983	643	432	210
x2 = 0.979	0.00328	0.0103	1188	772	514	246.5

COP(=O)([O-])OC.Cn1cc[n+](C)c1 + CO
Conditions	viscosity [mPa·s]
293.15 K, 101 kPa, x2 = 0.6018	20.02
293.15 K, 101 kPa, x2 = 0.8998	1.927
298.15 K, 101 kPa, x2 = 0	291
298.15 K, 101 kPa, x2 = 0.2977	86.2
298.15 K, 101 kPa, x2 = 0.3984	54.2
303.15 K, 101 kPa, x2 = 0.2009	95.3
303.15 K, 101 kPa, x2 = 0.5028	24.98
308.15 K, 101 kPa, x2 = 0.5028	21.1
308.15 K, 101.33 kPa, x2 = 0	139.5
318.15 K, 101 kPa, x2 = 0.1054	71.5
318.15 K, 101 kPa, x2 = 0.7027	5.83
323.15 K, 101 kPa, x2 = 0.2977	31.01
323.15 K, 101 kPa, x2 = 0.5028	13.63

CC(C)[C@H](N)C(=O)O + CCCCCCCCCCCCCC[n+]1ccccc1.O=C([O-])C(O)c1ccccc1 + O
Conditions	electrical conductivity [S/m]
313.15 K, 101 kPa, x2 = 0, x1 = 0.001799	0.00161

CCCC[N+](C)(C)C.O=S(=O)([N-]S(=O)(=O)C(F)(F)F)C(F)(F)F + CCC(O)CO
101 kPa
Conditions	viscosity [mPa·s]
323.15 K, x2 = 0.6289	15.53
328.15 K, x2 = 0	30
338.15 K, x2 = 0.2291	14.17
338.15 K, x2 = 0.3543	11.92
343.15 K, x2 = 0.2291	12.41
348.15 K, x2 = 0.6289	7.02
353.15 K, x2 = 0.5116	7.12
353.15 K, x2 = 0.8622	4.78

CC(C)[C@H](N)C(=O)O + CCCCCCCCCCCCCCCC[n+]1ccccc1.O=C([O-])c1ccccc1O + O
Conditions	electrical conductivity [S/m]
313.15 K, 101 kPa, x1 = 0.001799, x2 = 0	0.00161

C[C@@H](O)[C@H](N)C(=O)O + CCCC[n+]1ccn(C)c1.[Br-] + O
viscosity [mPa·s], 101.3 kPa
Conditions	x1 = 0.0003603, x2 = 0	x1 = 0.0007221, x2 = 0	x1 = 0.001078, x2 = 0	x1 = 0.001438, x2 = 0	x1 = 0.001779, x2 = 0	x1 = 0.002158, x2 = 0	x1 = 0.002516, x2 = 0
293.15 K	1.009	1.016	1.023	1.03	1.037	1.044	1.051
298.15 K	0.897	0.904	0.911	0.918	0.925	0.933	0.94
303.15 K	0.804	0.811	0.818	0.825	0.833	0.84	0.847
308.15 K	0.727	0.734	0.741	0.748	0.755	0.763	0.77
313.15 K	0.661	0.668	0.675	0.682	0.689	0.697	0.704

CC(C)[C@H](N)C(=O)O + CCCCCCCCCCCCCCCC[n+]1ccccc1.O=C([O-])C(O)c1ccccc1 + O
Conditions	electrical conductivity [S/m]
313.15 K, 101 kPa, x2 = 0, x1 = 0.001799	0.0016

CCCC[N+](C)(C)C.O=S(=O)([N-]S(=O)(=O)C(F)(F)F)C(F)(F)F + O=S(=O)([N-]S(=O)(=O)C(F)(F)F)C(F)(F)F.[Li+] + O
viscosity [mPa·s], 100 kPa
Conditions	293.15 K	298.15 K	303.15 K	313.15 K	323.15 K	333.15 K	343.15 K	353.15 K	363.15 K
x2 = 0.2745, x1 = 0.2745	100	78	59	38.1	26.5	19	14.2	10.9	8.61
x2 = 0.3106, x1 = 0.2745	150	115	88.9	53.9	35.5	24.7	18.1	13.7	10.6
x2 = 0.3509, x1 = 0.2745	264	192	145	87.4	51	34.7	24.6	18.2	13.9
x2 = 0.3868, x1 = 0.2745	341	245	182	106	65.4	43.1	30.1	21.3	16.5
x2 = 0.4308, x1 = 0.2745	494	401	289	162	99	58.8	40.6	28.8	21.2

CCCCCCCCC(=O)O + CCCCCCCC[N+](CCCCCCCC)(CCCCCCCC)CCCCCCCC.[Br-]
Conditions	electrical conductivity [S/m]
298.1 K, 100 kPa, x2 = 0.333	4.5e-06

C[S+](C)C.O=S(=O)([N-]S(=O)(=O)C(F)(F)F)C(F)(F)F + O=C1CCCO1
Conditions	electrical conductivity [S/m]
298.15 K, 101 kPa, x2 = 0.92	1.57

CC(C)[C@H](N)C(=O)O + CCCCCCCCCCCC[N+](C)(C)Cc1ccccc1.[Cl-] + O
electrical conductivity [S/m], 101 kPa
Conditions	293.15 K	298.15 K	303.15 K	308.15 K	313.15 K
x1 = 0.0008894, x2 = 0	0.000591	0.000675	0.000763	0.000854	0.000953
x1 = 0.001757, x2 = 0	0.00102	0.00116	0.00131	0.00147	0.00164

C[S+](C)C.O=S(=O)([N-]S(=O)(=O)C(F)(F)F)C(F)(F)F + N#CCCCC#N
101 kPa, x1 = 0.2085
Conditions	viscosity [mPa·s]
278 K	21.84
303 K	9.44
318 K	6.433
328 K	5.159
333 K	4.664
338 K	4.238
348 K	3.558

CC(C)=O + CCCC[n+]1ccn(C)c1.F[B-](F)(F)F
Conditions	electrical conductivity, 296.15 K [S/m]	viscosity, 303.15 K [mPa·s]	viscosity, 313.15 K [mPa·s]	viscosity, 323.15 K [mPa·s]
100 kPa, x2 = 0	–	0.303	0.276	0.255
101 kPa, x1 = 1	0.05	–	–	–
